In US9994571B2, “10-substituted morphinan hydantoins” (Purdue Pharma L.P., priority 2013, dated 2018):
Where two headings read alike, the source gives them in different places.

Assays:
μ-opioid receptor [1] = target: T1, μ-opioid receptor (Homo sapiens (Human), UniProt P35372); assay: μ-opioid receptor radioligand dose-displacement binding assay ([3H]-diprenorphine); settings: binding assays using HEK-293 cells; read-out: Opioid Receptor Ki (nM) μ
Experimental: Radioligand dose-displacement binding assays for μ-opioid receptors used 0.3 nM [^3H]-diprenorphine (Perkin Elmer, Shelton, Conn.), with […] membrane protein/well in a final volume of 500 μl binding buffer (10 mM MgCl2, 1 mM EDTA, 5% DMSO, 50 mM HEPES, pH 7.4). Reactions were carried out in the absence or presence of increasing concentrations of unlabeled naloxone. All reactions were conducted in 96-deep well polypropylene plates for 2 hours at room temperature. Binding reactions were terminated by rapid filtration onto 96-well Unifilter GF/C filter plates (Perkin Elmer, Shelton, Conn.), presoaked in 0.5% polyethylenimine using a 96-well tissue harvester (Perkin Elmer, Shelton, Conn.) followed by performing three filtration washes with 500 μl of ice-cold binding buffer. Filter plates were subsequently dried at 50° C. for 2-3 hours. BetaScint scintillation cocktail (Perkin Elmer, Shelton, Conn.) was added (50 μl/well), and plates were counted using a Packard Top-Count for 1 min/well. The data were analyzed using the one-site competition curve fitting functions in GraphPad PRISM™ v. 3.0 or higher (San Diego, Calif.), or an in-house function for one-site competition curve-fitting.
(§1) In TABLE 1, binding affinity of certain Compounds of the Invention to the μ- and κ-opioid receptors was determined as described above for binding assays using HEK-293 cells.

μ-opioid receptor [2] = target: T1, μ-opioid receptor; assay: μ-opioid receptor [35S]GTPγS functional assay; format: biochemical
Experimental: [^35S]GTPγS functional assays were conducted using freshly thawed μ-receptor membranes prepared in-house from a cell line expressing recombinant μ opioid receptor in a HEK-293, CHO or U-2 OS cell background, or purchased from a commercial source (Perkin Elmer, Shelton, Conn.; or DiscovRx, Fremont, Calif.). Assay reactions were prepared by sequentially adding the following reagents to binding buffer (100 mM NaCl, 10 mM MgCl2, 20 mM HEPES, pH 7.4) on ice (final concentrations indicated): membrane protein (0.026 mg/mL), saponin ([…]), GDP ([…]) and [^35S]GTPγS (0.20 nM; Perkin Elmer, Shelton, Conn.). The prepared membrane solution (190 l/well) was transferred to 96-shallow well polypropylene plates containing 10 μl of 20× concentrated stock solutions of the agonist [D-Ala^2, N-methyl-Phe^4 Gly-ol^5]-enkephalin (DAMGO) prepared in dimethyl sulfoxide (DMSO). Plates were incubated for 30 min at about 25° C. with shaking. Reactions were terminated by rapid filtration onto 96-well Unifilter GF/B filter plates (Perkin Elmer, Shelton, Conn.) using a 96-well tissue harvester (Perkin Elmer, Shelton, Conn.) followed by three filtration washes with 200 μl of ice-cold wash buffer (10 mM NaH2PO4, 10 mM Na2HPO4, pH 7.4). Filter plates were subsequently dried at 50° C. for 2-3 hours. BetaScint scintillation cocktail (Perkin Elmer, Shelton, Conn.) was added (50 μl/well) and plates were counted using a Packard Top-Count for 1 min/well. Data were analyzed using the sigmoidal dose-response curve fitting functions in GraphPad PRISM v. 3.0, or an in-house function for non-linear, sigmoidal dose-response curve-fitting.
μ GTP EC50 is the concentration of a compound providing 50% of the maximal response for the compound at a μ-opioid receptor.
μ GTP Emax (%) is the maximal effect elicited by a compound relative to the effect elicited by DAMGO, a standard μ agonist. Generally, the μ GTP Emax (%) value measures the efficacy of a compound to treat or prevent pain or other Conditions.
(§2) In TABLE 2, activity response of certain Compounds of the Invention to the μ- and κ-opioid receptors was determined as described above for functional assays using U-2 OS cells.

κ opioid receptor [3] = target: T2, κ opioid receptor (Homo sapiens (Human), UniProt P41145); assay: κ-opioid receptor radioligand dose-displacement binding assay ([3H]-U69,593); settings: binding assays using HEK-293 cells; read-out: Opioid Receptor Ki (nM) κ
Experimental: Membranes from HEK-293 cells, CHO or U-2 OS cells expressing the recombinant human κ opioid receptor (κ) were prepared by lysing cells in ice cold hypotonic buffer (2.5 mM MgCl2, 50 mM HEPES, pH 7.4) (10 mL/10 cm dish) followed by homogenization with a tissue grinder/Teflon pestle. Membranes from a cell line naturally expressing kappa opioid receptor can also be used. Membranes were collected by centrifugation at 30,000×g for 15 min at 4° C. and pellets were resuspended in hypotonic buffer to a final concentration of 1-3 mg/mL. Protein concentrations were determined using the BioRad protein assay reagent with bovine serum albumen as standard. Aliquots of K receptor membranes were stored at −80° C.
Radioligand dose displacement assays used 0.4 nM [^3H]-U69,593 (GE Healthcare, Piscataway, N.J.; 40 Ci/mmole) with 15 μg membrane protein (recombinant κ opioid receptor expressed in HEK 293 cells; in-house prep) in a final volume of 200 μl binding buffer (5% DMSO, 50 mM Trizma base, pH 7.4). Non-specific binding was determined in the presence of 10 μM unlabeled naloxone or U69,593. All reactions were performed in 96-well polypropylene plates for 1 hour at a temperature of about 25° C. Binding reactions were terminated by rapid filtration onto 96-well Unifilter GF/C filter plates (Perkin Elmer, Shelton, Conn.) presoaked in 0.5% polyethylenimine (Sigma). Harvesting was performed using a 96-well tissue harvester (Perkin Elmer, Shelton, Conn.) followed by five filtration washes with 200 μl ice-cold binding buffer. Filter plates were subsequently dried at 50° C. for 1-2 hours. Fifty μl/well scintillation cocktail (Perkin Elmer, Shelton, Conn.) was added and plates were counted in a Packard Top-Count for 1 min/well.
as §1

κ opioid receptor [4] = target: T2, κ opioid receptor; assay: κ-opioid receptor [35S]GTPγS functional assay; format: biochemical
Experimental: Functional [^35S]GTPγS binding assays were conducted as follows. κ opioid receptor membrane solution was prepared by sequentially adding final concentrations of 0.026 μg/μl κ membrane protein (in-house), 10 μg/mL saponin, 3 μM GDP and 0.20 nM [^35S]GTPγS to binding buffer (100 mM NaCl, 10 mM MgCl2, 20 mM HEPES, pH 7.4) on ice. The prepared membrane solution (190 μl/well) was transferred to 96-shallow well polypropylene plates containing 10 μl of 20× concentrated stock solutions of agonist prepared in DMSO. Plates were incubated for 30 min at a temperature of about 25° C. with shaking. Reactions were terminated by rapid filtration onto 96-well Unifilter GF/B filter plates (Perkin Elmer, Shelton, Conn.) using a 96-well tissue harvester (Packard) and followed by three filtration washes with 200 μl ice-cold binding buffer (10 mM NaH2PO4, 10 mM Na2HPO4, pH 7.4). Filter plates were subsequently dried at 50° C. for 2-3 hours. Fifty μl/well scintillation cocktail (Perkin Elmer, Shelton, Conn.) was added and plates were counted in a Packard Top-Count for 1 min/well.
κ GTP EC50 is the concentration of a compound providing 50% of the maximal response for the compound at a K receptor.
κ GTP Emax (%) is the maximal effect elicited by a compound relative to the effect elicited by U69,593.
as §2

[5] = functional assays using U-2 OS cells, relative to the effect elicited by DAMGO
[6] = functional assays using U-2 OS cells, relative to the effect elicited by U69,593

Compound | Ki (μ-opioid receptor [1]) | EC50 (μ-opioid receptor [2]) | Emax (μ-opioid receptor [2]; [5]) | Ki (κ opioid receptor [3]) | EC50 (κ opioid receptor [4]) | Emax (κ opioid receptor [4]; [6]) | EC50 (μ-opioid receptor [2]; functional assays using U-2 OS cells, read-out: Opioid Receptor μ EC50) | Opioid Receptor μ Emax (%) (μ-opioid receptor [2]; [5]) | EC50 (κ opioid receptor [4]; functional assays using U-2 OS cells, read-out: Opioid Receptor κ EC50) | Opioid Receptor κ Emax (%) (κ opioid receptor [4]; [6])
O=C1NC(=O)[C@@]2(CC[C@@]3(O)[C@H]4C(=O)c5ccc(O)cc5[C@@]3(CCN4CC3CC3)C2)N1 [Compound 13, (4bR,4′S,8aS,9S)-11-(cyclopropylmethyl)-3,8a-dihydroxy-7,8,8a,9-tetrahydrospiro[9,4b-(epiminoethano)phenanthrene-6,4′-imidazolidine]-2′,5′,10(5H)-trione] | 472 ± 40.8 nM | 0.0375 ± 0.00618 µM | 61.3 ± 5.78% | 12.2 ± 0.61 nM | 0.00879 ± 0.00126 µM | 106 ± 2.52% | – | – | – | –
(4bR,4′S,8aS,9S,10R)-11-(cyclopropylmethyl)-10-fluoro-8a-hydroxy-3-methoxy-5,7,8,8a,9,10-tetrahydrospiro [9,4b-(epiminoethano)phenanthrene-6,4′-imidazolidine]-2′,5′-dione [Compound 18] | – | – | – | – | – | – | 1.55 ± 0.184 µM | 14.7 ± 0.33% | 1.48 ± 0.125 µM | 81.7 ± 0.88%
